The nature of one experiment: Second sacrificial agent testing protocol: paste air measurements with DDBS (0.0125 wt %) and rating. For Overall performance rating (second protocol rating): key: 0: Fail; 1: Poor; 2: Good; 3: Preferred; 4: Most preferred. For SA Rating (0-4): key: 0: Fail; 1: Poor; 2: Good; 3: Preferred; 4: Most preferred.
Settings: not given
As to the method:
The second sacrificial agents evaluation protocol has been designed to assess the relative potential value of candidate sacrificial agents with a maximum of five paste air measurements.
The first two measurements (of entrained air) are carried out with a standard AEA in a portland cement paste and in a FA:cement paste; these two tests provide reference values which can be used for the relative assessment of a series of sacrificial agents. The other three paste air measurements pertain to the properties and effectiveness of the sacrificial agents.
1. Measurement of the air entrained by a standard air-entraining admixture in a cement paste of fixed composition and fluidity; the latter is a reference system which provides ‘reference’ air entrainment values (‘A’ in FIG. 8).
2. […] The difference between ‘B’ and ‘A’ in FIG. 8 is the reduction in air entrainment due to the presence of the fly ash; this is illustrated as ‘C’ in FIG. 8.
In the present SA testing and evaluation protocol, the fly ash selected should remain the same for the entire set of additives tested, in order to provide reliable relative performance ranking. For the present series of test, the Fly Ash selected was the one identified as B1 in Table 1 below; the physico-chemical properties of this fly ash are reported in Table 1.
In testing for the relative performance of the sacrificial agent, the sacrificial agent dosage was chosen in the range 0-0.1 wt %, which corresponds to typical dosage values observed in paste, mortar and concrete tests reported in Tables 2, 3 and 4 and Tables 7 to 34.
3. Measurement of the air entrainment of the SA, by itself, in a cement-only paste at a dosage of 0.1 wt %; this is illustrated as ‘D’ in FIG. 8.
4. Measurement of the air entrained by DDBS in the FA-cement paste comprising 0.05% wt SA, under the same conditions as described in 2 above. The air entrainment value observed in this system, compared to that observed in the absence of the SA, yields the air recovery due to the SA, and is illustrated schematically as ‘E’ in FIG. 8.
5. Same as in 4 above, but with a higher SA concentration at 0.1 wt %; the air entrainment observed, again compared to the value observed in the absence of the SA, yields a second value of air recovery by the SA and is illustrated as ‘F’ in FIG. 8.
For the relative performance rating of the group of products chosen as potential SA and listed in Table 36, the following rating scheme (Tables A and B) was adopted (referring to FIG. 8 and quantities defined therein):
1: Chemical name of compound tested as potential sacrificial agent • Col. 2: Level of air entrainment by the candidate sacrificial agent, at a concentration of 0.1 wt %, in a Portland cement paste ([…]) • Col. […] 5: Sacrificial agent overall rating index (described below) • Col. 6: Hydrophilic-Lipophilic Balance (HLB) values of candidate sacrificial agent (source and significance of HLB data given below) • Col. 7: Logarithm of the Oil(octanol)/water partition coefficient (Kow) of the candidate sacrificial agents (source and significance of data given below).
For `CC(O)CNCC(C)O` (stereo not drawn) [Di-isopropanolamine], the “B1 + 0.0125% DDBS + 0.05% SA (air entrainment)” value (“B1 + 0.0125% DDBS + 0.05% SA” for short) is 4.6, the “B1 + 0.0125% DDBS + 0.1% SA (air entrainment)” value (shortened to “B1 + 0.0125% DDBS + 0.1% SA”) is given as 5.5, the “Overall performance rating (second protocol rating)” value (from here on “Overall performance rating”) is given as 3 and the “PCA + 0.1% SA (level of air entrainment by the candidate sacrificial agent)” value (“PCA + 0.1% SA” for short) was 1.1. In addition, the “SA Rating (0-4)” value is 3.
For the compound `CCOCCOC(C)=O` [E.G. mono-ethyl ether acetate], the “B1 + 0.0125% DDBS + 0.05% SA” value amounted to 4.7, the “B1 + 0.0125% DDBS + 0.1% SA” value is reported as 4.7, the “PCA + 0.1% SA” value was 0.0 and the “SA Rating (0-4)” value turned out to be 2.
Consider `CCO` [Ethanol], for which the “B1 + 0.0125% DDBS + 0.05% SA” value worked out at 3.1, the “B1 + 0.0125% DDBS + 0.1% SA” value was 3.3, the “PCA + 0.1% SA” value is reported as 1.5 and the “SA Rating (0-4)” value is reported as 0.
For `CCCC(=O)OCC` [Ethylbutyrate], the “Overall performance rating” value was found to be 3.
The same measure, in the same setting: in the case of `CCOCCO` [Ethylene Glycol Ethyl Ether] it was 4.

Still in this experiment, the particulars now being: B1 FA/cement paste; 0.0125 wt % DDBS; 0.05 wt % SA.
`CCCCCC(=O)OCC` [Ethylcaproate]: the “B1 + 0.0125% DDBS + 0.05% SA” value is recorded as 4.3.
Regarding `CC(C)COCCO` [Ethylene Glycol iso-Butyl Ether], the “B1 + 0.0125% DDBS + 0.05% SA” value is listed as 8.8.

The same experiment, now with this note: B1 FA/cement paste; 0.0125 wt % DDBS; 0.10 wt % SA.
As for `CNC(=O)NC` [Dimethylurea], the “B1 + 0.0125% DDBS + 0.1% SA” value stood at 2.9.
On the same count and under the same terms, the figure for `CCCCCC(=O)OCC` [Ethylcaproate] is 2.4; for `CC(C)COCCO` [Ethylene Glycol iso-Butyl Ether] it is 9.5.

The same experiment, now with this note: B1 FA/cement paste; […].
Turning to `OCCNCCO` [Di-ethanolamine], the “B1 + 0.0125% DDBS + 0.05% SA” value worked out at 2.7 and the “B1 + 0.0125% DDBS + 0.1% SA” value is reported as 2.6.
Taken in the same sequence, the figures for `COC(=O)CC(=O)OC` [Dimethyl malonate] were 2.5 and 2.6.
The corresponding values for `COP(=O)([O-])OC.[Na+]` [Dimethylphosphate Na] are 2.5 and 2.7.
Turning to `C[S+](C)[O-]` [Dimethylsulfoxide], the “B1 + 0.0125% DDBS + 0.05% SA” value is 2.5 and the “B1 + 0.0125% DDBS + 0.1% SA” value came out at 3.1.
The corresponding values for `CCOC(C)=O` [Ethyl acetate] are 3.2 and 3.3.
As for `CCCC(=O)OCC` [Ethylbutyrate], the “B1 + 0.0125% DDBS + 0.05% SA” value is 5.2 and the “B1 + 0.0125% DDBS + 0.1% SA” value was found to be 4.3.
On to `CCOCCO` [Ethylene Glycol Ethyl Ether], for which the “B1 + 0.0125% DDBS + 0.05% SA” value came to 5.0 and the “B1 + 0.0125% DDBS + 0.1% SA” value is 6.8.

Staying with this experiment, now noted: Portland cement paste (PCA); […].
As to `OCCNCCO` [Di-ethanolamine], the “PCA + 0.1% SA” value turned out to be 0.3.
The same measure, in the same setting: in the case of `COC(=O)CC(=O)OC` [Dimethyl malonate] it was 0.2.
Still for that read-out and setting: the figure for `COP(=O)([O-])OC.[Na+]` [Dimethylphosphate Na] is 1.3; for `C[S+](C)[O-]` [Dimethylsulfoxide] it is 0.0; for `CNC(=O)NC` [Dimethylurea] it is 0.5.
Turning to `CCOC(C)=O` [Ethyl acetate], the “PCA + 0.1% SA” value is 0.8.
On the same count and under the same terms, the figure for `CCCC(=O)OCC` [Ethylbutyrate] is 0.7.
On the same count and under the same terms, in the case of `CCCCCC(=O)OCC` [Ethylcaproate] it was 0.0.
Same read-out and setting: in the case of `CCOCCO` [Ethylene Glycol Ethyl Ether] it was 1.2; in that of `CC(C)COCCO` [Ethylene Glycol iso-Butyl Ether], 1.7.

Staying with this experiment, now noted: sacrificial agent overall rating index.
With `OCCNCCO` [Di-ethanolamine], the “SA Rating (0-4)” value stood at 0.
On to `COC(=O)CC(=O)OC` [Dimethyl malonate], for which the “SA Rating (0-4)” value is 0.
On the same count and under the same terms, in the case of `COP(=O)([O-])OC.[Na+]` [Dimethylphosphate Na] it was 0.
The same measure, in the same setting: in the case of `C[S+](C)[O-]` [Dimethylsulfoxide] it was 0; in that of `CNC(=O)NC` [Dimethylurea], 2; in that of `CCOC(C)=O` [Ethyl acetate], 0.
On the same count and under the same terms, the figure for `CCCC(=O)OCC` [Ethylbutyrate] is 3; for `CCCCCC(=O)OCC` [Ethylcaproate] it is 1.
For the compound `CCOCCO` [Ethylene Glycol Ethyl Ether], the “SA Rating (0-4)” value was 4.
Same read-out and setting: the figure for `CC(C)COCCO` [Ethylene Glycol iso-Butyl Ether] is 4.

Staying with this experiment, now noted: sum of ratings of air entrainment recovery by 0.05% and 0.1% SA; DDBS 0.0125 wt %, 50:50 B1 fly ash:cement paste.
Turning to `CNC(=O)NC` [Dimethylurea], the “Overall performance rating” value was 2.
Still for that read-out and setting: in the case of `CCCCCC(=O)OCC` [Ethylcaproate] it was 1.
Still for that read-out and setting: the figure for `CC(C)COCCO` [Ethylene Glycol iso-Butyl Ether] is 4.

(Values after US7892350B2, “Sacrificial agents for fly ash concrete” (Boral Material Technologies Inc., priority 2003, dated 2011).)
